In patent US10791989B2, “Magnetic resonance imaging of poly-L-glutamate” (The Trustees of The University of Pennsylvania, priority 2013, dated 2020):

What was measured:
[1] = system: F98 tumor cells; settings: after addition of PLG vs without PLG, 9.4 T
Experimental: (§1) Both the CEST imaging and MRS were performed.
F98 cell line is known to be aggressive and expresses cathepsin B and other proteases.

[2] = target: T1, cathepsin B (Homo sapiens, UniProt P07858); test: Proton MRS of phantoms (PLG+cathepsin B) on 7T whole-body scanner; format: biochemical; settings: phantom with PLG and cathepsin B
Experimental: as §1

[3] = target: T1, cathepsin B; test: CEST imaging of phantoms (glutamate, PLG, PLG+cathepsin B) on 7T whole-body scanner; format: biochemical; settings: phantom, room temperature; for CEST contrast at 3 ppm: substance alone
Experimental: as §1

MR spectrum change with cathepsin B [2]	CEST contrast at 3 ppm after addition of cathepsin B ([3]; PLG with cathepsin B)	Molecule	increase in CEST contrast at 3 ppm [1] [%]	CEST contrast at 3 ppm [3]
cleavage of 2.3 and 4.1 ppm peaks	appreciable CEST contrast	Poly(L-glutamic acid) [PLG]	−16	No CEST contrast
		N[C@@H](CCC(=O)O)C(=O)O [Glu, glutamate]		strong CEST contrast
